Measured values from patent US8758474B2, “Urea fertilizer containing central volatilization inhibitor particles to reduce release of ammonia and processes for making same” (NFT Industries, LLC, priority 2010, dated 2014).

Tested on: enzymes in the soil
Assay: Ammonia volatilization test (fertilizer applied to the surface of moist soil, ammonia captured in sulfuric acid and titrated)
Settings: cumulative, percent of total starting nitrogen
Description: Nitrogen lost, as ammonia, after soil application occurs over a long time period. The present volatilization test was designed to simulate and quantify processes in the soil. The volatilization test apparatus and procedure utilized to evaluate the test product samples described in above Table 1 is summarized as follows.
Procedure for Measurement of Ammonia
The test was designed to determine the volatility of a fertilizer product when applied to the surface of the soil. The baseline, standard that used was one gram of urea. Each sample was placed in a sample flask which contained a pre-weighed amount of soil and water. The same source of soil was used in all testing. Humidified air was then passed over the sample to carry any ammonia which had volatilized by the enzymes in the soil, to a receiving flask. The receiving flask contained sulfuric acid which captured the ammonia. The receiving flask was then titrated to determine the amount of ammonia volatilized from each sample.
Mixed Methyl Red—Methylene Blue Indicator (150 mL): • Dissolve 0.2 g of methyl red in 100 mL of ethyl alcohol (70-95%). Dissolve 0.1 g methylene blue in 50 mL of ethyl alcohol (70-95%). Mix together. • Indicator was good for 30 days. Testing Apparatus: Manifold: • a. A manifold was constructed of ½ inch cpvc (chlorinated polyvinyl chloride). • b. The manifold has 22 ports with a needle valve for air flow adjustment. • c. The tubing from the manifold to the sample flask was connected to a 1/16 inch hose barb on the needle valve.
2. Air Supply: • a. The air was supplied by an air compressor with a regulator to control the pressure to the manifold. • b. The air goes through a rotameter with a control knob to adjust the flow to the manifold (A minimum of 70 volumes of the head space is in each sample flask during each sampling interval, often much higher. Head space refers to the air volume above the soil.). • c. The air from the rotameter goes through a bubbler containing 25% sulfuric acid solution. After the sulfuric acid bubbler is a knock out chamber to prevent any sulfuric acid mist from going further. • d. The air then goes to a water bubbler to hydrate the air before going through another knock out chamber before entering the manifold.
3. Sample Flask • a. The sample flask is a 250 mL Erlenmeyer flask. The tubing from the manifold is connected to the flask by a barb fitting in a rubber stopper. • b. Each sample flask contained 48 grams of soil (dried and sieved through a 12 mesh screen), 12 grams of water, and the equivalent of one gram of urea. The materials were added to the flasks in the order list to ensure that the sample was added to moist soil (20-25%).
4. Receiving Flask • a. The receiving flask is a 125 mL Erlenmeyer flask. Tubing from the stopper on the sample flask is connected to a glass sparger passing through a stopper to the receiving flask. • b. Each receiving flask contains 50 mL of 0.5N Sulfuric Acid. • c. The tip of the glass sparger is below the level of the acid to allow the air to bubble through the acid and capture any ammonia present. • d. The receiving flask is removed and replaced with flask containing fresh solution at the intervals of 3, 7 and 10 days.
5. Measurement of Ammonia • a. The contents of each receiving flask removed at the intervals of 3, 7 and 10 days were tested for ammonia according to the above described Procedure for Measurement of Ammonia. The first ten days are most critical and are sufficient to determine reliable comparative results. • b. […] Ammonia Volatilization Test Results for Products in Table 2

% Ammonia Released (Table 2 series, Day 0) [%] | % Ammonia Released (Table 2 series, Day 3) [%] | % Ammonia Released (Table 2 series, Day 7) [%] | % Ammonia Released (Table 2 series, Day 10) [%] | % Ammonia Released (Table 3 series, Day 0) [%] | % Ammonia Released (Table 3 series, Day 3) [%] | % Ammonia Released (Table 3 series, Day 7) [%] | % Ammonia Released (Table 3 series, Day 10) [%] | % Ammonia Released (Table 5 series, Day 0) [%] | % Ammonia Released (Table 5 series, Day 3) [%] | % Ammonia Released (Table 5 series, Day 7) [%] | % Ammonia Released (Table 5 series, Day 10) [%] | Compound | % Ammonia Released (Table 4 series, Day 0) [%] | % Ammonia Released (Table 4 series, Day 3) [%] | % Ammonia Released (Table 4 series, Day 7) [%] | % Ammonia Released (Table 4 series, Day 10) [%]
– | – | – | – | – | – | – | – | – | – | – | – | N.O=P(O)(O)O [MAP, monoammonium phosphate] | 0 | 0.74 | 1.61 | 2.09
0 | 0.23 | 72.29 | 82.37 | 0 | 1.09 | 38.83 | 81.33 | 0 | 0.05 | 40.35 | 65.11 | NC(N)=O [Urea] | 0 | 27.41 | 88.77 | 90.81
